This note sets out measurements from paper PMC4140284, “Human UTY(KDM6C) Is a Male-specific N^ϵ-Methyl Lysyl Demethylase” (The Journal of Biological Chemistry, 2014).

For assay [1], the system named is partially phosphorylated UTY(KDM6C). The assay can be described thus: 2OG turnover by 1H NMR, partially phosphorylated UTY(KDM6C). The following applies: 10 μM, in 28 min. The format is biochemical, human.
The subject of assay [2] is UTY(KDM6C) dephosphorylated in vitro using λ-phosphatase. Description: 2OG turnover by 1H NMR, dephosphorylated UTY(KDM6C). Format: biochemical, human. The settings on record: UTY(KDM6C) dephosphorylated with λ-phosphatase, 10 μM, in 28 min.
For assay [3], the system named is UTY(KDM6C). The assay can be described thus: Inhibition of H3K27Me3 peptide demethylation, UTY(KDM6C). The following applies: 10 μM inhibitor, 15 min preincubation, 20 min at 37 °C. The format is biochemical, human. Here is the method:
(§1) Reaction components were premixed in two batches ((i) enzyme, Fe(II), and ascorbate and (ii) 2OG and peptide), and reactions were initiated by mixing the enzyme and substrate mix. Reactions were incubated at 37 °C for the indicated times before being quenched with methanol in a 1:1 ratio.
(§2) For inhibition assays, the same enzyme/Fe(II)/ascorbate mixture was preincubated with 10 μM inhibitor for 15 min before the reaction was initiated by the addition of the peptide substrate solution. Reactions were quenched with 1:1 methanol after 20 min at 37 °C.
(§3) Product formation was assessed by MALDI-TOF MS. One microliter of quenched reaction was mixed with 1 μl of α-cyano-4-hydroxycinnamic acid and spotted onto a MALDI-TOF plate for analysis using a MALDI micro-MX mass spectrometer (Waters) in reflectron positive ion mode with pulse voltage 1250 V, detector voltage 2750 V, and mass suppression 1000 Da. Data were analyzed using MassLynx version 4.0. For inhibitor assays, inhibition levels were measured relative to an inhibitor-free reaction.

The target of assay [4] is T1, KDM6A (Homo sapiens, UniProt O15550).
T1 construct: KDM6B and KDM6A plasmids were used as described previously; made in house; host or cells: Escherichia coli BL21 (DE3)
T1 sequence (O15550 whole entry): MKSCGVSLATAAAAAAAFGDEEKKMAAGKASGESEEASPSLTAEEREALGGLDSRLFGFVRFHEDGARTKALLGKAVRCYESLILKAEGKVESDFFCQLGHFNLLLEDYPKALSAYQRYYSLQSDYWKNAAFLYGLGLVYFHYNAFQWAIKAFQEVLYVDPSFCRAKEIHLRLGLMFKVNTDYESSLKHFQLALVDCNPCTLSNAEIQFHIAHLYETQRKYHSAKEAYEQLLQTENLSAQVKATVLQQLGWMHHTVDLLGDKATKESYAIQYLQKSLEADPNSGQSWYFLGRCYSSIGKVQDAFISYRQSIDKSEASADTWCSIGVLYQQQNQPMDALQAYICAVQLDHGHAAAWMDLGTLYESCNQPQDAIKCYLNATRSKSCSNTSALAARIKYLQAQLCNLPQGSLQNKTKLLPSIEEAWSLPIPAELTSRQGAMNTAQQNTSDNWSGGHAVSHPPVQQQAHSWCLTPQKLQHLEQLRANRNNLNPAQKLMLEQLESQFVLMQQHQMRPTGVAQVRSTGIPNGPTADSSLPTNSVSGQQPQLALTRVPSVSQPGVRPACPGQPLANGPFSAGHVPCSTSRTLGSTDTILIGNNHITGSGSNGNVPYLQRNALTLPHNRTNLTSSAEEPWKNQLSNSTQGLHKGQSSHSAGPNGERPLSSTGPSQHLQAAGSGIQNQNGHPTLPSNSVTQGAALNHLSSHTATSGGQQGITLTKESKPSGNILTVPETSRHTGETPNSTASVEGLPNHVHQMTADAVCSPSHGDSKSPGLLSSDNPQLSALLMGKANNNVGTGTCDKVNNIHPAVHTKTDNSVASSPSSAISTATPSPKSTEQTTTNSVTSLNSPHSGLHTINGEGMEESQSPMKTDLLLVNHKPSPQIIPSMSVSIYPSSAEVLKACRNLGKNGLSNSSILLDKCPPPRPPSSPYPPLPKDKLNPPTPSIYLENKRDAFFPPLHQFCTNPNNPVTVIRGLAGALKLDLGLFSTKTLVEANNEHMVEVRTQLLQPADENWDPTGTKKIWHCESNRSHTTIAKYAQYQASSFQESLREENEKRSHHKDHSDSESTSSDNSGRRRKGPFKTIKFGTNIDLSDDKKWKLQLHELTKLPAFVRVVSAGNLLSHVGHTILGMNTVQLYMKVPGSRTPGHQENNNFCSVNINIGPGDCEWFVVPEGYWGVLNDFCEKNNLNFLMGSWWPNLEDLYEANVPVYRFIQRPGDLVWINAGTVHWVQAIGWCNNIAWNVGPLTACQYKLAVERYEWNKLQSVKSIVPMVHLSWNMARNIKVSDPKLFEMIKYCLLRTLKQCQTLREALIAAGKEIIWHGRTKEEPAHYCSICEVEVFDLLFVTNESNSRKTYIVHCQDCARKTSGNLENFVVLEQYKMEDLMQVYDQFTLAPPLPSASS
The assay can be described thus: Inhibition of H3K27Me3 peptide demethylation, KDM6A. The format is biochemical. The settings on record: 10 μM inhibitor, 15 min preincubation, 20 min at 37 °C. Here is the method: as §1, §2, §3

Assay [5] deals with H3K27Me3 levels in HeLa cells. Description: Immunofluorescence of global H3K27Me3 levels on overexpression in HeLa cells. Format: cell-based. The following applies: exogenous overexpression in HeLa cells. Here is the method:
For cell-based experiments, HEK 293T and HeLa cells were cultured at 37 °C and 5% CO2 in DMEM (Lonza) supplemented with 10% fetal bovine serum (FBS) (Invitrogen) and 1% Glutamax (Invitrogen). For microscopy, HeLa cells were seeded into 96-well clear bottom optical grade plates (BD Biosciences) at 8000 cells/well and allowed to settle overnight. Transfections were carried out the next day. For each well, 0.1 μg of plasmid and 0.25 μl of Lipofectamine 2000 (Invitrogen) were each incubated in 25 μl of Opti-MEM (Invitrogen) for 5 min at room temperature. The two solutions were then mixed gently but thoroughly and incubated for 20 min at room temperature. The mixture was added to the cells in 50 μl of fresh medium. Four hours later, the medium was changed, and the cells were incubated for a further 24 h before fixation. Cells were fixed in 4% (v/v) aqueous formaldehyde for 20 min, permeabilized in 0.5% Triton X-100 in phosphate-buffered saline (PBS) for 8 min, and blocked in 3% (w/v) FBS in PBS for 1 h with a PBS wash between each step. The primary antibodies were then added to the cells in blocking solution. […] Luciferase activity was measured using the Promega Dual-Luciferase Reporter Assay System on a Promega GloMax 20/20 luminometer. Readings were normalized to a Renilla luciferase control that was co-transfected with all samples. […]

Assay [6] relates to UTY(KDM6C). Description: Demethylation of histone peptides by MALDI-TOF MS, UTY(KDM6C). The format is biochemical, human. The settings on record: UTY(KDM6C) 818–1347, 1 h at 37 °C. Here is the method:
as §1, §3
With catalytically active UTY(KDM6C) in hand, we then investigated whether a longer UTY(KDM6C) construct (residues 818–1347, herein UTY(KDM6C)) can act as a KDM. UTY(KDM6C) was incubated for 1 h at 37 °C with histone peptide fragments corresponding to known mono-, di-, and tri- lysine methylation sites of histone 3 (at Lys^4, Lys^9, Lys^27, and Lys^36) and histone 4 (at Lys^20) (Table 3). Demethylation was assessed by a mass spectrometric (MS) assay with mass shifts of −14 and −28 Da, corresponding to mono- and didemethylation, respectively. […] The predominant product was H3K27Me2, resulting from a single demethylation; a smaller amount of H3K27Me1 was observed as a result of didemethylation (Fig. 3C). Demethylation was dependent on the presence of Fe(II)/2OG.

Assay [7] addresses T1, KDM6A. The assay can be described thus: Demethylation of histone peptide by MALDI-TOF MS, KDM6A. Format: biochemical. The following applies: KDM6A positive control. Here is the method:
as §1, §3
(§4) With catalytically active UTY(KDM6C) in hand, we then investigated whether a longer UTY(KDM6C) construct (residues 818–1347, herein UTY(KDM6C)) can act as a KDM. UTY(KDM6C) was incubated for 1 h at 37 °C with histone peptide fragments corresponding to known mono-, di-, and tri- lysine methylation sites of histone 3 (at Lys^4, Lys^9, Lys^27, and Lys^36) and histone 4 (at Lys^20) (Table 3). Demethylation was assessed by a mass spectrometric (MS) assay with mass shifts of −14 and −28 Da, corresponding to mono- and didemethylation, respectively. […]

In a further assay the target is T2, KDM6B (Homo sapiens, UniProt O15054).
T2 construct: KDM6B and KDM6A plasmids were used as described previously; made in house; host or cells: Escherichia coli BL21 (DE3)
T2 sequence (O15054 whole entry): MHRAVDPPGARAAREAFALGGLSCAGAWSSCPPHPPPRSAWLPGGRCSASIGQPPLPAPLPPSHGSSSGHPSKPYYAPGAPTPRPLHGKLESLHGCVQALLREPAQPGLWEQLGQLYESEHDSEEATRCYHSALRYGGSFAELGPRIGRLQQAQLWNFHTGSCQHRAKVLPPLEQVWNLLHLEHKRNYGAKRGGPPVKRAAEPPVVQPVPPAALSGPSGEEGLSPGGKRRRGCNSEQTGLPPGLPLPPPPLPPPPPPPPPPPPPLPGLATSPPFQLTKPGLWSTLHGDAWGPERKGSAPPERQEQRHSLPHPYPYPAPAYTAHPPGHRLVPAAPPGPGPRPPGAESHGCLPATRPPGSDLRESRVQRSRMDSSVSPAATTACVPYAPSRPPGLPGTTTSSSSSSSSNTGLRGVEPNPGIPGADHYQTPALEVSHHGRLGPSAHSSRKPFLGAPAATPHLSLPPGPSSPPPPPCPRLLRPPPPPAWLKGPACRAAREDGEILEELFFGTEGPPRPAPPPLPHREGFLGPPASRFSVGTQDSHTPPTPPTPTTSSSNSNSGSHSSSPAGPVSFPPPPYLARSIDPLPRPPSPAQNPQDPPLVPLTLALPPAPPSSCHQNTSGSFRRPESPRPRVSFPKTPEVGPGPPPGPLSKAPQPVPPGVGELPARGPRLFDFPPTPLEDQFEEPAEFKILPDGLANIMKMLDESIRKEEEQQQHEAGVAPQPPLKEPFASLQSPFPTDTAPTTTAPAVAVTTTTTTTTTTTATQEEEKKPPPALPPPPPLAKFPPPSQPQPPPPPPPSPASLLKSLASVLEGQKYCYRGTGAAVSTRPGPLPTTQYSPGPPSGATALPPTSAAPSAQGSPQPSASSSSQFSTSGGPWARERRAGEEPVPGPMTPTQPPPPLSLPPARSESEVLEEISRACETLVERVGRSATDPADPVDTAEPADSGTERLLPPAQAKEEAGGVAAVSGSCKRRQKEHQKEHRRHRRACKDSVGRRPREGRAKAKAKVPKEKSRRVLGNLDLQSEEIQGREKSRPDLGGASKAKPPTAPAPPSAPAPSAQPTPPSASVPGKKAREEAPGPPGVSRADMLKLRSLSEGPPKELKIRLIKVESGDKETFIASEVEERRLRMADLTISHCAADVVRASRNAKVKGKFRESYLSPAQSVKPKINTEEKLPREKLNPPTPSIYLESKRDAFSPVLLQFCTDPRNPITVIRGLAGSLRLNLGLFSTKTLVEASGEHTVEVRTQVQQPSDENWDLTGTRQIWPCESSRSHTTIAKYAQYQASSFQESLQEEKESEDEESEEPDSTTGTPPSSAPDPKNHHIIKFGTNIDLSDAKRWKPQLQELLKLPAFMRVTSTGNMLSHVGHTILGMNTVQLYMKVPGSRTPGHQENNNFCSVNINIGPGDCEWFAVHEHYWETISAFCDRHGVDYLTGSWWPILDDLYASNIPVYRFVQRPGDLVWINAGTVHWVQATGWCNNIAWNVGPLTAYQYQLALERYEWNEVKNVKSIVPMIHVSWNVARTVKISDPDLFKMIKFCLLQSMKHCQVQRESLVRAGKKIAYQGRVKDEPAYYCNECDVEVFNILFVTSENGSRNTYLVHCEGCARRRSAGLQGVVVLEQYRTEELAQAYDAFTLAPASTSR
The assay can be described thus: Demethylation of histone peptide by MALDI-TOF MS, KDM6B. The format is biochemical. The following applies: KDM6B positive control. Here is the method:
as §1, §3, §4

In another assay the test system is KDM6. The assay can be described thus: Demethylation of histone peptide by 1H NMR, KDM6. The settings on record: KDM6 catalyzed. The format is biochemical, human. The text has this: The total echo time was 48 ms.

On to `O=C(O)CCC(=O)C(=O)O` [2OG, 2-oxoglutarate], for which the succinate produced in assay [1] and in assay [2] was 7 ± 0.5 nmol throughout.

`O=C(O)CCNc1cc(N2CCc3ccccc3CC2)nc(-c2ccccn2)n1` [GSK-J1]: the “potency rank among nine inhibitors” value in the assay with UTY(KDM6C) [3] and at KDM6A [4] was “most potent inhibitor” each time. In the assay with UTY(KDM6C) [3] (H3K27Me3 peptide, MALDI MS), the inhibition of demethylation entry is “inhibition of UTY(KDM6C) activity by GSK-J1 was observed”.

As to “FL WT KDM6B: full-length wild type KDM6B, positive control”, the “change in global H3K27Me3 level” value in [5] is listed as “a decrease was observed”.

Consider “GGKAPRKQLATKAARKMe3SAPATGG [23-residue histone peptide containing H3K27Me3 (histone 3, 12–34)]”, for which the demethylation result is recorded as “catalyzes the demethylation” in the assay with UTY(KDM6C) [6]; “demethylation was observed” with UTY(KDM6C) [6] (listed as H3K27Me3 peptide (histone 3, 12–34)); “demethylation was observed” at KDM6A [7]; “demethylation was observed” at KDM6B. In addition, the minor demethylation product entry in the assay with UTY(KDM6C) [6] (didemethylation, smaller amount) is reported as “H3K27Me1”. For the same compound, in the assay on UTY(KDM6C) [6] (single demethylation), the predominant demethylation product entry is “H3K27Me2”.

In the case of “GGKAPRKQLATKAARKMe3SAPATGGV [24-residue histone peptide containing H3K27Me3]”, the demethylation entry with KDM6 is on record as “KDM6 catalyzed demethylation”.
